Activity calls are given as the source filed them. How the calls were made is not given here.
Test system: GENE-TOX genotoxicity assays, various organisms and cells
Assay: GENE-TOX mutagenicity studies
Details: for call: Assay Type: In vivo carcinogenicity studies
[1] = Species/Cell Type: Salmonella typhimurium (one or more of the five standard strains: TA98, TA100, TA1535, TA1537, and TA1538), Assay Type: Histidine reverse gene mutation, Ames assay, Assay Code: SALT, Evaluation Type: Evaluation A (Pre-1980)
[2] = Species/Cell Type: Salmonella typhimurium, Assay Type: Forward and reverse gene mutation, host-mediated assay, Assay Code: HMA-, Evaluation Type: Evaluation A (Pre-1980)
[3] = Species/Cell Type: Salmonella typhimurium (one or more of the five standard strains: TA98, TA100, TA1535, TA1537, and TA1538), Assay Type: Histidine reverse gene mutation, Ames assay, Assay Code: SAL+, Evaluation Type: Evaluation A (Pre-1980)
[4] = Species/Cell Type: Chinese hamster ovary (CHO) cells, Assay Type: Forward gene mutation at the HPRT locus, Assay Code: CHO+, Evaluation Type: Evaluation B (Post-1980)
[5] = Species/Cell Type: Escherichia coli polA (W3119 vs P3478), Assay Type: Rec-assay, DNA effects (bacterial DNA repair), Assay Code: RE1+, Evaluation Type: Evaluation A (Pre-1980)
[6] = Species/Cell Type: Mouse, Sex: Male, Assay Type: Sperm morphology, Assay Code: SPI-, Evaluation Type: Evaluation A (Pre-1980)
[7] = Species/Cell Type: Chinese hamster lung (V79) cells, Assay Type: Forward gene mutation at the HPRT or ouabain locus, Assay Code: V79-*, Activation: With metabolic activation, Evaluation Type: Evaluation A (Pre-1980)
[8] = Species/Cell Type: Nonhuman, Assay Code: CCGT, Evaluation Type: Evaluation A (Pre-1980)
[9] = Species/Cell Type: Salmonella typhimurium (one or more of the five standard strains: TA98, TA100, TA1535, TA1537, and TA1538), Assay Type: Histidine reverse gene mutation, Ames assay, Assay Code: SAL+*, Activation: With metabolic activation, Evaluation Type: Evaluation A (Pre-1980)
[10] = Species/Cell Type: Drosophila melanogaster, Assay Type: Sex-linked recessive lethal gene mutation, Assay Code: SRL+, Evaluation Type: Evaluation A (Pre-1980)
[11] = Species/Cell Type: Nonhuman, Assay Code: CCG+, Evaluation Type: Evaluation A (Pre-1980)
[12] = Species/Cell Type: Bacillus subtilis (H17 vs M45), Assay Type: Rec-assay, spot test, DNA effects (bacterial DNA repair), Assay Code: REW+, Evaluation Type: Evaluation A (Pre-1980)
[13] = Species/Cell Type: Mammalian polychromatic erythrocytes, Assay Type: Micronucleus test, chromosome aberrations, Assay Code: MNTT, Evaluation Type: Evaluation B (Post-1980)

Compound: Cc1cc2ccccc2c2ccc3ccc(F)cc3c12
- mutagenic call [1]: no conclusion

Compound: CC(C)(C)NCC(O)COc1cccc2c1CCC(=O)N2 (stereo unspecified)
- mutagenic call (Species/Cell Type: Bacillus subtilis (H17 vs M45), Assay Type: Rec-assay, spot test, DNA effects (bacterial DNA repair), Assay Code: REW-, Evaluation Type: Evaluation A (Pre-1980)): inactive; negative
- mutagenic call (Species/Cell Type: Escherichia coli WP2, Assay Type: Tryptophan reverse gene mutation, Assay Code: WP2-, Evaluation Type: Evaluation A (Pre-1980)): inactive; negative
- mutagenic call (Species/Cell Type: Escherichia coli WP2 UVRA, Assay Type: Tryptophan reverse gene mutation, Assay Code: WPU-, Evaluation Type: Evaluation A (Pre-1980)): inactive; negative
- mutagenic call [2]: inactive; negative

Compound: O=c1cc[nH]c2ccccc12
- mutagenic call (Species/Cell Type: Salmonella typhimurium (one or more of the five standard strains: TA98, TA100, TA1535, TA1537, and TA1538), Assay Type: Histidine reverse gene mutation, Ames assay, Assay Code: SAL-, Evaluation Type: Evaluation A (Pre-1980)): inactive; negative

Compound: O=C1c2c(O)ccc(Cl)c2C(=O)c2c(O)ccc(Cl)c21
- mutagenic call [3]: active; positive

Compound: CC(C(=O)O)c1ccc(C(=O)c2ccccc2)s1 (stereo unspecified)
- mutagenic call (Species/Cell Type: Human lymphocytes, Assay Type: Sister-chromatid exchange (SCE) in vivo, Assay Code: SCY+, Evaluation Type: Evaluation B (Post-1980)): active; positive

Compound: Cc1c2ccncc2c(C)c2c1[nH]c1ccc(N)cc12
- mutagenic call [4]: active; positive

Compound: OCCBr
- mutagenic call [5]: active; positive
- mutagenic call [6]: inactive; negative
- mutagenic call [3]: active; positive
- mutagenic call (Species/Cell Type: Tradescantia species, Assay Type: Gene mutation, Assay Code: TRM+D, Dose Response: With dose response, Evaluation Type: Evaluation A (Pre-1980)): active; positive

Compound: Cc1ccc2ccc3c(C)c4ccccc4c(C)c3c2c1
- mutagenic call [7]: inactive; negative

Compound: Cc1c2ccccc2c(C)c2c1ccc1ccc(O)cc12
- mutagenic call [7]: inactive; negative
- call [8]: no conclusion

Compound: CCCN(CCCCO)N=O
- mutagenic call [9]: active; positive

Compound: Cc1c2ccccc2c(CO)c2ccc3c(c12)C=C[C@@H](O)[C@@H]3O
- call (Species/Cell Type: Nonhuman, Assay Code: CCG+L, Evaluation Type: Evaluation A (Pre-1980)): active; positive

Compound: CCOP(=S)(OCC)Oc1ccc(Cl)cc1Cl
- mutagenic call (Species/Cell Type: Human, Assay Type: Sister-chromatid exchange (SCE) in vitro, Assay Code: SC1+D, Dose Response: With dose response, Evaluation Type: Evaluation B (Post-1980)): active; positive

Compound: CC(=O)N(C)N=O
- mutagenic call [10]: active; positive
- mutagenic call (Species/Cell Type: Drosophila melanogaster, Sex: Male, Assay Type: Heritable translocation test, chromosome aberrations, Assay Code: DHTT, Evaluation Type: Evaluation A (Pre-1980)): no conclusion
- mutagenic call (Species/Cell Type: Saccharomyces cerevisiae, Assay Type: Forward gene mutation, Assay Code: YEF+, Evaluation Type: Evaluation A (Pre-1980)): active; positive
- mutagenic call (Species/Cell Type: Saccharomyces cerevisiae, Assay Type: Reverse gene mutation, Assay Code: YER+, Evaluation Type: Evaluation A (Pre-1980)): active; positive

Compound: Cc1cc2ccccc2c2ccc3ccccc3c12
- call [11]: active; positive
- mutagenic call [9]: active; positive

Compound: O=c1cc[nH]c(=S)[nH]1
- mutagenic call (Species/Cell Type: Drosophila melanogaster, Assay Type: Sex-linked recessive lethal gene mutation, Assay Code: SRLT, Evaluation Type: Evaluation A (Pre-1980)): no conclusion

Compound: O=CNNc1nc(-c2ccc([N+](=O)[O-])o2)cs1
- mutagenic call [12]: active; positive
- mutagenic call (Species/Cell Type: Escherichia coli WP2, Assay Type: Tryptophan reverse gene mutation, Assay Code: WP2+, Evaluation Type: Evaluation A (Pre-1980)): active; positive
- mutagenic call (Species/Cell Type: Escherichia coli WP2 UVRA, Assay Type: Tryptophan reverse gene mutation, Assay Code: WPU+, Evaluation Type: Evaluation A (Pre-1980)): active; positive
- mutagenic call (Species/Cell Type: Mouse, Sex: Male, Assay Type: Sperm morphology, Assay Code: SPI+, Evaluation Type: Evaluation A (Pre-1980)): active; positive
- call [11]: active; positive
- mutagenic call [3]: active; positive

Compound: O=C(COc1ccc(Br)cc1CN1CCOCC1)N/N=C/c1ccccc1O
- mutagenic call (Species/Cell Type: Saccharomyces cerevisiae, Assay Type: Reverse gene mutation, Assay Code: YERT, Evaluation Type: Evaluation A (Pre-1980)): no conclusion

Compound: CC(C)NCC(O)c1ccc(NS(C)(=O)=O)cc1 (stereo unspecified)
- mutagenic call [13]: no conclusion

Compound: Nc1ccc(-c2ccc(N)c(Cl)c2)cc1Cl
- mutagenic call (Species/Cell Type: Fischer rat embryo (RLV/1706) cells, Assay Type: Cell transformation, viral enhanced, Assay Code: CTR+, Evaluation Type: Evaluation A (Pre-1980)): active; positive
- mutagenic call (Species/Cell Type: Human diploid fibroblasts, Assay Type: Unscheduled DNA synthesis (UDS) in vitro, DNA effects, Assay Code: UDHT, Evaluation Type: Evaluation A (Pre-1980)): no conclusion
- mutagenic call (Species/Cell Type: Mammalian polychromatic erythrocytes, Assay Type: Micronucleus test, chromosome aberrations, Assay Code: MNT+, Evaluation Type: Evaluation B (Post-1980)): active; positive
- call [11]: active; positive
- mutagenic call [9]: active; positive
- mutagenic call [3]: active; positive
- mutagenic call (Species/Cell Type: Syrian hamster embryo (SA7/SHE) cells, Assay Type: Cell transformation, viral enhanced, Assay Code: CT7+, Evaluation Type: Evaluation A (Pre-1980)): active; positive

Compound: O[C@@H]1[C@H](O)[C@@H](O)c2cc3ccc4cccc5ccc(c2[C@@H]1O)c3c45
- mutagenic call [7]: inactive; negative

Compound: CN(C)CCC(=O)c1ccc2c(c1)OCO2
- mutagenic call [2]: inactive; negative

Compound: COCCOC(=O)c1ccccc1C(=O)OCCOC
- mutagenic call (Species/Cell Type: Rodents, Sex: Male, Assay Type: Dominant lethal test, Assay Code: DLTT, Evaluation Type: Evaluation A (Pre-1980)): no conclusion

Compound: Oc1cccc2c1cc1ccc3cccc4ccc2c1c34
- mutagenic call [7]: inactive; negative
- call [8]: no conclusion
- mutagenic call [1]: no conclusion

Compound: O.O.O.[Co]
- mutagenic call [12]: active; positive

Compound: CN(N=O)C(=O)c1ccc(C(=O)N(C)N=O)cc1
- mutagenic call (Species/Cell Type: Arabidopsis species, Assay Type: Gene mutation, Assay Code: ARM-, Evaluation Type: Evaluation A (Pre-1980)): inactive; negative
- mutagenic call (Species/Cell Type: Saccharomyces cerevisiae, Assay Type: Mitotic recombination or gene conversion, Assay Code: YEH+, Evaluation Type: Evaluation A (Pre-1980)): active; positive
- mutagenic call (Species/Cell Type: Saccharomyces cerevisiae, Assay Type: Reverse gene mutation, Assay Code: YER-, Evaluation Type: Evaluation A (Pre-1980)): inactive; negative

Compound: Nc1ccc(N)c(N)c1
- mutagenic call [6]: inactive; negative
- mutagenic call [1]: no conclusion

Compound: CC(C)[C@@](O)(C(=O)OCC1=CCN2CCC[C@@H]12)[C@@H](C)O
- mutagenic call (Species/Cell Type: Allium cepa, Assay Type: Chromosome aberrations, Assay Code: ALC+, Evaluation Type: Evaluation A (Pre-1980)): active; positive
- mutagenic call [10]: active; positive

Compound: CN(C)c1ccccc1N=Nc1ccccc1
- mutagenic call (Species/Cell Type: Salmonella typhimurium, Assay Type: Forward and reverse gene mutation, host-mediated assay, Assay Code: HMA+, Evaluation Type: Evaluation A (Pre-1980)): active; positive

Compound: CC(=O)Nc1ccc(OCC(O)CNC(C)C)cc1 (stereo unspecified)
- mutagenic call [13]: no conclusion
- mutagenic call [6]: inactive; negative

Compound: Nc1c(Cl)cc([N+](=O)[O-])cc1Cl
- mutagenic call (Species/Cell Type: Aspergillus nidulans, Assay Type: Aneuploidy, chromosome aberrations, Assay Code: ASNT, Evaluation Type: Evaluation A (Pre-1980)): no conclusion
- mutagenic call (Species/Cell Type: Bacillus subtilis (H17 vs M45), Assay Type: Rec-assay, spot test, DNA effects (bacterial DNA repair), Assay Code: REWT, Evaluation Type: Evaluation A (Pre-1980)): no conclusion
- mutagenic call (Species/Cell Type: Hordeum vulgare (barley), Assay Type: Chromosome aberrations, Assay Code: HOC+, Evaluation Type: Evaluation A (Pre-1980)): active; positive
- mutagenic call (Species/Cell Type: Vicia faba, Assay Type: Chromosome aberrations, Assay Code: VIC+, Evaluation Type: Evaluation A (Pre-1980)): active; positive

Compound: c1cncc([C@@H]2CCCN2)c1
- mutagenic call (Species/Cell Type: Nonhuman, Assay Type: Sister-chromatid exchange (SCE) in vitro, Assay Code: SC2+, Evaluation Type: Evaluation B (Post-1980)): active; positive

Compound: O=c1[nH]c(=O)n([C@H]2C[C@H](O)[C@@H](CO)O2)cc1Cl
- mutagenic call [4]: active; positive
- mutagenic call (Species/Cell Type: Nonhuman, Assay Type: Sister-chromatid exchange (SCE) in vitro, Assay Code: SC2+D, Dose Response: With dose response, Evaluation Type: Evaluation B (Post-1980)): active; positive

Compound: O=C(c1ccc2c(c1)OCO2)C1CO1 (stereo unspecified)
- mutagenic call [3]: active; positive

Compound: CC(C)C(Br)Br
- mutagenic call [5]: active; positive

Compound: O=NN1CCC(Cl)C(Cl)C1 (stereo unspecified)
- mutagenic call (Species/Cell Type: Drosophila melanogaster, Assay Type: Aneuploidy, partial sex chromosome loss, chromosome aberrations, Assay Code: DAPT, Evaluation Type: Evaluation A (Pre-1980)): no conclusion
- mutagenic call (Species/Cell Type: Drosophila melanogaster, Assay Type: Aneuploidy, whole sex chromosome loss, chromosome aberrations, Assay Code: DACT, Evaluation Type: Evaluation A (Pre-1980)): no conclusion
- mutagenic call [10]: active; positive

Compound: CCCN(CCCC(=O)O)N=O
- mutagenic call [3]: active; positive

— PubChem BioAssay AID1259408 (Genetic Toxicology Data Bank (GENE-TOX), 2018)
